Measurements from patent US20180050082A1, “SERPINS FOR THE TREATMENT OF NEUROINFLAMMATORY DISEASES” (Anvil Biosciences, LLC, priority 2015, published 2018).
Entries after “also recorded” stand apart in the source; their conditions may differ.

What was measured:
[1] = tested on: NMO mouse model; assay: Mouse NMO model, more severe disease (25×10^6 Th17-polarized cells), disease scores, blinded study (Example 3); format: in vivo, C57BL/6 mice; conditions: for End Score (end disease score +/− SD): Day 17 post-transfer, AAT 2 mg or both i.p. daily Day 4 to Day 16; for End Score (end disease score +/− SD) / MMS +/− SD (mean maximum disease score) / Mean Day of Onset +/− SEM: Mpred 0.5 mg; for MMS +/− SD (mean maximum disease score) / Mean Day of Onset +/− SEM: AAT 2 mg or both i.p. daily Day 4 to Day 16 post-transfer; for Mean Day of Onset +/− SEM: 10 mice per cohort
Experimental: 25×10^6 cells prepared as above were adoptively transferred i.p. into recipient C57BL/6 mice. Mice received PBS, Mpred (0.5 mg), AAT (2 mg), or both AAT+Mpred as daily doses administered i.p. starting on Day 4 post-transfer until Day 16 post-transfer. Ten recipient mice per cohort. […] The bold p-values indicate significant (p<0.05) differences between the treatments when compared to PBS (control).

[2] = tested on: NMO mouse model, spines (cervical, thoracic and lumbar sections); assay: Spine histopathology scores in NMO mouse model, blinded study (Example 3); format: in vivo, C57BL/6 mice; conditions: spines collected Day 18; for Demyelination (H + E) score +/− SD: hematoxylin and eosin stained section, 4 mice per cohort
From the text: An NMO mouse model as described above was used. Spines were collected from 4 mice per treatment cohort on Day 18 and prepared for histology. Sections from cervical, thoracic and lumbar spine regions were scored and averaged. […] Bold formatting indicates significant (p<0.05) difference of treatment compared to PBS (control).

[3] = tested on: Neuromyelitis Optica (NMO) induced by the adoptive transfer of Th17 Experimental Autoimmune Encephalomyelitis (EAE) cells; assay: NMO induced by adoptive transfer of Th17 EAE cells (15×10^6 cells), clinical scores (Example 1); format: in vivo, C57BL/6 mice; conditions: 2 mg A1AT in PBS i.p. daily day 5 to day 18; vs PBS; n=10 mice per group
From the text: C57BL/6 donor mice were immunized via subcutaneous injection with MOG-35-55 peptide in complete Freund's Adjuvant. This induces Experimental Autoimmune Encephalomyelitis (EAE), an animal model for progressive multiple sclerosis. (Miller et al., Curr. Protoc. Immunol., Chapter Unit 15.1 (2007); incorporated herein by reference in its entirety). The mice were boosted […] via intraperitoneal injection with Pertussis toxin on day 0, 2, and 7 days post-immunization. Mice were sacrificed and spleens and lymph nodes collected and resuspended into single cell suspensions. Cells were cultured with MOG peptide and IL-23 to increase Th17 skewing and cultured for 3 days. Cells were harvested and approximately 15×10̂6 cells were adoptively transferred into recipient C57BL/6 mice via intraperitoneal injection. Starting day 5 for 2 weeks until day 18, mice were administered daily via intraperitoneal injection with 100 uL of PBS or A1AT (2 mg A1AT formulated in PBS). Clinical scores were measured each day at approximately the same time of day. Clinical scores measure ascending paralysis. A score of 1 is a limp tail. A score of 2 includes hind limb weakness. A score of 3 includes hind limb paralysis. A score of 4 includes forelimb weakness. A score of 5 is indicated by death. (See Miller et al.).

[4] = tested on: murine model of NMO; assay: Murine model of NMO, less severe disease (12×10^6 Th17-polarized cells), disease score (Example 2); format: in vivo, C57BL/6 mice; conditions: FIG. 2
Experimental: Blood-derived human A1AT was compared to Sivelestat in a murine model of NMO. A less severe disease was induced when 12×10^6 Th17-polarized cells were adoptively transferred i.p. into recipient C57BL/6 mice. To induce Th17-polarized cells, C57BL/6 mice were induced with MOG35-55/CFA. 11 days later, their spleen cells were harvested and restimulated in culture with MOG35-55 peptide (Miller et al., supra) for 3 days.
Mice received PBS, Sivelestat (0.5 mg), or A1AT (2 mg) as daily doses administered i.p. starting on Day 5 post-transfer until Day 18 post-transfer. There were 10 recipient mice per cohort. Error bars represent SEM. Points where A1AT compared to PBS and mean disease scores were significant (p<0.05) are indicated (*).

[5] = tested on: spleen cells of Th17-polarized cell transplanted mice restimulated with MOG peptide; assay: Ex vivo cytokine measurements from spleen cells restimulated with MOG peptide, cytokine bead assay (Example 4); format: in vivo
Experimental: Ex vivo cytokine measurements from spleen cells of Th17-polarized cell transplanted mice restimulated with MOG peptide were conducted to survey effector and memory recall responses of the immune cell compartment, primarily from T cells. Spleens were collected from 6 mice per treatment cohort on Day 18. Single cell suspensions were prepared and cultured with the indicated amounts of MOG35-55 peptide. Supernatants were collected after 3 days of culture and IL-17A, IFN-γ, IL-6, or IL-2 measured by cytokine bead assay (BD Biosciences, San Jose, Calif., Cat. No. 560485). The results in this blinded study were expressed in cytokine pg/mL+/−SEM.

## C[C@H]1C[C@@H]2[C@H]([C@@H](O)C[C@@]3(C)[C@H]2CC[C@]3(O)C(=O)CO)[C@@]2(C)C=CC(=O)C=C12 [Mpred, methylprednisolone, reference compound]
[1]
  End Score (end disease score +/− SD): 2.25 +/− 0.42
  MMS +/− SD (mean maximum disease score): 2.95 +/− 0.44
  Mean Day of Onset +/− SEM: 8.5 +/− 0.4
[2]
  Demyelination (H + E) score +/− SD: 1.2 +/− 0.3
[2]; 4 mice per treatment cohort
  Apoptotic Cells +/− SD (apoptotic cell counts): 1.3 +/− 0.9
  Inflammatory foci +/− SD (number of inflammatory foci per section >20 cells): 3.0 +/− 0.9

## alpha-1 antitrypsin [A1AT]
[3]
  Clinical scores (ascending paralysis): significant improvement when compared to PBS treatment
[4]; A1AT 2 mg i.p. daily Day 5 to Day 18 post-transfer
  Onset of disease: delay onset of disease
[4]; A1AT 2 mg or Sivelestat 0.5 mg i.p. daily Day 5 to Day 18 post-transfer, vs PBS
  NMO disease score: reduced the NMO disease score compared to PBS (control) and was superior to Sivelestat at all days of overt signs of disease
[1]
  End Score (end disease score +/− SD): 3.10 +/− 0.57
  MMS +/− SD (mean maximum disease score): 3.50 +/− 0.00
  Mean Day of Onset +/− SEM: 8.4 +/− 0.4
[1]; FIG. 3, 10 recipient mice per cohort, vs PBS or either treatment alone
  Mean disease scores over days measured: early efficacy compared to Mpred alone and PBS (control) on Day 5 and 6 but afterwards did not show therapeutic effect
[2]
  Demyelination (H + E) score +/− SD: 1.8 +/− 0.4
[2]; 4 mice per treatment cohort
  Apoptotic Cells +/− SD (apoptotic cell counts): 2.5 +/− 0.3
[5]; spleens Day 18, 6 mice per cohort, supernatants after 3 days culture with MOG35-55, FIG. 5A
  IL-17A: decreased the inflammatory cytokines IL-17A compared to PBS and Mpred alone; also recorded: decreased the inflammatory cytokine IL-17A when compared to PBS and Mpred alone
[5]; spleens Day 18, 6 mice per cohort, supernatants after 3 days culture with MOG35-55, FIG. 5B
  IFN-γ: decreased the inflammatory cytokine IFN-γ when compared to Mpred alone
[5]; without antigenic restimulation (0 MOG peptide), compared to Mpred alone, FIG. 5D
  IL-2: IL-2 levels were higher without antigenic restimulation (0 MOG peptide)
